Data on two compounds can be found in patent US11707557B2, “Compositions and devices incorporating water-insoluble therapeutic agents and methods of the use thereof” (COOK MEDICAL TECHNOLOGIES LLC, priority 2014, dated 2023).

As usually defined, the solubility is how much of the substance goes into solution per volume.

Molecules are shown by their SMILES. In brackets after ≈: the same amount, converted by molar mass. Read-outs that look alike come from different tables or passages of the source.

Series [1] can be described thus: Solubility of drug in EGCG or tannic acid solutions (dried down, PBS or water added, 0.22 micron filtered, HPLC or absorbance).
Method: (§3) PBS (EGCG) or water (tannic acid) was added and the final solution filtered through a 0.22 micron filter to remove any particulates. The solutions were analyzed for drug concentration using HPLC.
(§4) PBS (EGCG) or water (tannic acid) was added and the final solution filtered through a 0.22 micron filter to remove particulates. The solution was then analyzed for drug concentration using absorbance spectroscopy at 450 nm.
(§5) PBS (EGCG) or water (tannic acid) was added and the final solution was filtered through a 0.22 micron filter to remove any particulates and the solution was analyzed for drug concentration using HPLC.
(§6) PBS (EGCG) or water (tannic acid) was added and the final solution filtered through a 0.22 micron filter to remove any particulates and the solution was analyzed for drug concentration using HPLC.
(§7) PBS (EGCG) or water (Tannic acid) was added and the final solution was filtered through a 0.22 um filter to remove any particulates and the solution was analyzed for drug concentration using HPLC.
(§8) Method: drug and EGCG or tannic acid were dried down from acetonitrile (or methanol for tannic acid) solutions at various drug to EGCG or tannic acid ratios. PBS (EGCG) or water (Tannic acid pH adjusted to 7) was added and the final solution was filtered through a 0.22 um filter to remove any particulates and the solution was analyzed for drug concentration using HPLC methods.
A further series has as its system mdck-mdr cells. The series can be described thus: Uptake and transport of docetaxel through MDCK-MDR cell monolayers (transwell). In kind it is in vitro ADME, canine. As to conditions: EGCG-docetaxel solution 250 micrograms/ml, 2 hours 37° C., compared to tween or diblock copolymer micellar solutions. From the text:
(§1) The canine kidney cells, known as MDCK cells, are a non cancer proliferating cell line from canine kidneys. The MDR derivative of these cells is a multi-drug resistant version. The cell lines MDCK and MDCK-MDR are routinely used in the field of drug resistance because in the MDCK cells drugs can accumulate and kill the cells whereas the MDR cells contain drug efflux proteins that efflux the drug so that much higher drug doses are needed to maintain intracellular concentrations sufficient to kill these cells. […]
(§2) MDCK cells were seeded at 10000 cells per transwell membrane (Becton and Dickenson: 0.3 microns, 1 cm diameter) and grown for one week until a continuous monolayer was present. Drug at 250 micrograms/ml (doped with ^3H docetaxel, with carrier (tween, diblock (2000 40-60) PDLLA-mepeg or EGCG), all in hanks buffer, were added to the top well (0.4 ml) with 1.2 ml of hanks buffer in the base well. The wells were incubated at 37° C. for two hours. The transwells were then disassembled and the amount of drug in the base reservoir (transported through the cells) or in the cells (determined by dissolution of the filter after 3 washes in hanks buffer) was determined by liquid scintillation counting.

A further series relates to MDCK cells. The series can be described thus: Uptake and transport of docetaxel through MDCK cell monolayers (transwell). In kind it is in vitro ADME, canine. As to conditions: EGCG-docetaxel solution 250 micrograms/ml, 2 hours 37° C., compared to tween or diblock copolymer micellar solutions.
From the text: as §1, §2

The conditions of series [2]: 24 h.
Method: as §3, §4, §5, §6, §7, §8
Series [3] is described as follows: Rate of paclitaxel release from EGCG carrier coatings on balloon catheters. The format is physicochemical. The protocol:
A balloon catheter was inflated and revolved along its horizontal axis. […] The drug/EGCG solution was slowly pipetted onto the balloon using 25 microliters at a time and dried with gentle heat from an electric blowdryer. The catheter assembly was then left overnight to dry. To measure the drug release the catheter was inflated and immersed in 5 ml of PBS-albumin buffer at pH 7.4 for a specific time with mild revolution to create movement. The catheter was then removed and placed in a new tube containing 5 ml of PBS-Album in for the second drug release time point. One ml of dichloromethane was added to each 5 ml of PBS and the tube shaken. The contents were allowed to settle and the top liquid aspirated off. The dichloromemethane was allowed to dry and then the solids were redissolved in 60/40 acetonitrile/water v/v and drug quantitated by HPLC analysis (c18 column, 58/5/37 acetonitrile/methanol/water at 1 ml/min flow rate with detection at 232 nm)

For series [4], the system named is canine kidney (mdck) cells. The series can be described thus: Uptake of paclitaxel into mdck cells with or without EGCG. The format is cell-based.
The test system of another series is fresh rat aorta artery. The series can be described thus: Paclitaxel uptake into artery tissue from coated balloon catheter. The format is in vitro ADME. The conditions noted are these: for available paclitaxel taken up by the artery / available paclitaxel washed out from the artery: ignoring catheter residual and gloves wash. Here is the method:
A 2-3 cm strip of fresh rat aorta artery was placed over a 200 microliter pipette tip and fed onto the deflated balloon catheter to mimic the feeding of the balloon into the blood vessel. The balloon was then inflated and the system was left for 2 minutes at 37° C. in a bath of Hanks buffered salt solution (HBSS). The balloon was then deflated and 300 microliters of HBSS pipetted into the artery and the wash out collected in a centrifuge tube. This wash step was repeated three times. Because the handler's gloves were moist and had contacted the balloon (and therefore absorbed some EGCG/drug) the gloves fingers were washed extensively in 100 ml of HBSS.
The aorta tissue was placed in 500 microliters of tissue solubilizer and left at 60° C. for 4 hours to digest. The contents were then placed in a scintillation counter. The deployed catheter balloon was observed after the procedure. Some of the balloon had not deployed (the balloon was tight in the aorta and not fully inflated) and traces of the reddish colored EGCG/drug could be observed in the folds. […] The catheter balloon was then inflated in 5 ml of acetonitrile to recover the undissolved EGCG and measured by scintillation counting. All other fractions (aorta wash and gloves wash were also counted. These four fractions (aorta, gloves, catheter residual and aorta wash) accounted for all drug and the total scintillation count form everything was taken and 100% of the applied drug.
A balloon catheter was inflated and revolved along its horizontal axis. The drug/EGCG solution was slowly pipetted onto the balloon using 25 microliters at a time and dried with gentle heat from an electric blowdryer. A 2-3 cm strip of fresh rat aorta artery was placed over a 200 microliter pipette tip and fed onto the deflated balloon catheter to mimic the feeding of the balloon into the blood vessel. The balloon was then inflated and the system was sonicated for 2 minutes at 37° C. in Hanks buffered salt solution (HBSS) (4 MHz, 30 watts/cm2). The balloon was then deflated and 300 microl of (HBSS) was pipetted into the artery and the wash out collected in a centrifuge tube. This wash step was repeated three times. Samples were collected as in the previous example.
A balloon catheter was inflated and revolved along its horizontal axis. The drug/diblock solution was slowly pipetted onto the balloon using 25 microliters at a time and dried with gentle heat from an electric blowdryer. […] A 2-3 cm strip of fresh rat aorta artery was placed over a 200 ul pipette tip and fed onto the deflated balloon catheter to mimic the feeding of the balloon into the blood vessel. The system was then immersed in Hanks buffered salt solution (HBSS) at 37° C. for 2 minutes.
A balloon catheter was inflated and revolved along its horizontal axis. The drug/tannic acid solution was slowly pipetted onto the balloon using 25 microliters at a time and dried with gentle heat from an electric blowdryer.

Method for physchem: as §3, §4, §5, §6, §7, §8

`CC(=O)O[C@@]12CO[C@@H]1C[C@H](O)[C@@]1(C)C(=O)[C@H](O)C3=C(C)[C@@H](OC(=O)[C@H](O)[C@@H](NC(=O)OC(C)(C)C)c4ccccc4)C[C@@](O)([C@@H](OC(=O)c4ccccc4)[C@H]21)C3(C)C` [docetaxel]: the solubility in series [1] (EGCG solution (200 mg/ml) in PBS, aqueous with cosolvent or surfactant or cyclodextrin, thermodynamic from solid, drug concentration solubilised at maximum EGCG concentration, EGCG 200 mg per ml, PBS) was roughly 1500 µg/mL (≈ 1860 µM); in series [1] (water, free solubility in water, no EGCG or tannic acid), 5 to 7 µg/mL (≈ 6.19 to 8.66 µM). Besides, the “effect of temperature on solubility” value in series [1] (EGCG solutions) is reported as “no effect of temperature”; in series [1] (tannic acid solutions, 37° C. or 50° C. compared to 23° C.) it was “no effect of temperature”. The “stability of EGCG solutions of the drug” value in series [1] (EGCG solutions, 24 hours) is reported as “stable over 24 hours”. The “stability of tannic acid solutions of the drug” value in series [1] (tannic acid concentrations above 150 mg/ml, 24 hrs) is on record as “not stable over 24 hrs”. Moreover, the “amount of docetaxel accumulated in the cells or transported through the cells” value with mdck-mdr cells and with MDCK cells was “increased” throughout.
As to `CC(=O)O[C@H]1C(=O)[C@@]2(C)[C@H]([C@H](OC(=O)c3ccccc3)[C@]3(O)C[C@H](OC(=O)[C@H](O)[C@@H](NC(=O)c4ccccc4)c4ccccc4)C(C)=C1C3(C)C)[C@]1(OC(C)=O)CO[C@@H]1C[C@@H]2O` [paclitaxel], in series [2], the “stability of EGCG solutions of the drug” value is on record as “not stable over 24 hours”. The “stability of tannic acid solutions of the drug” value in series [2] was “stable for 24 hours”. Also, the “release of paclitaxel from coated balloon catheter” value in series [3] (EGCG alone (zero percentage diblock copolymer), PBS-albumin pH 7.4) is recorded as “all paclitaxel was released in one minute”. The “time to complete release of paclitaxel” value in series [3] (EGCG with 10 percentage diblock copolymer) and in series [3] (EGCG with 20 percentage diblock copolymer) was no more than 2 min each time. In addition, the “release rate of paclitaxel” value in series [3] (EGCG with 50% diblock copolymer) was “slowed the release rate dramatically”. Also, the solubility in the series “physchem” (aqueous with cosolvent or surfactant or cyclodextrin, thermodynamic from solid, drug concentration solubilised at maximum EGCG concentration) was roughly 1000 µg/mL (≈ 1170 µM); in “physchem” (aqueous with cosolvent or surfactant or cyclodextrin, thermodynamic from solid, drug concentration solubilised at maximum tannic acid concentration) it was roughly 4800 µg/mL (≈ 5620 µM); in “physchem” (water, free solubility in water), 1 µg/mL (≈ 1.17 µM). The results for the “paclitaxel level in cells” value in series [4] (co-incubated with EGCG at 50 microg/ml) and in series [4] (paclitaxel alone) were no more than 2000 pg/mg and “approximately 200 pg/mg cellular protein”, respectively. Further, the “increase in drug uptake with EGCG” value in series [4] (with EGCG versus alone) is listed as 10 fold. Moreover, the “total paclitaxel associated with the artery” value in the series with fresh rat aorta artery (EGCG coating (30 mg EGCG, 300 microgram drug), 2 minutes 37° C.) is recorded as “More than 50%”; in the series on fresh rat aorta artery (EGCG coating with ultrasound (4 MHz, 30 watts/cm2), 2 minutes), “More than 50%”; in the series with fresh rat aorta artery (diblock copolymer coating (6 mg), 2 minutes), “Approximately 10%”; with fresh rat aorta artery (tannic acid coating), “Approximately 40%”. Also, the “total paclitaxel washed out of the artery” value with fresh rat aorta artery (EGCG coating with ultrasound) was 2%; in the series on fresh rat aorta artery (EGCG coating, 2 minutes 37° C.), 2%; in the series with fresh rat aorta artery (diblock copolymer coating) it was “less than 2%”; in the series on fresh rat aorta artery (tannic acid coating), “less than 1%”. Also, the “available paclitaxel taken up by the artery” value in the series with fresh rat aorta artery (EGCG coating with ultrasound) and in the series on fresh rat aorta artery (EGCG coating) was “approximately 95%” in each case. The “available paclitaxel washed out from the artery” value in the series with fresh rat aorta artery (EGCG coating with ultrasound) and in the series with fresh rat aorta artery (EGCG coating) was “less than 5%” each time. Moreover, the “residual on the catheter” value in the series with fresh rat aorta artery (tannic acid coating) is given as “approximately 29%”. The “available drug transferred to the tissues” value in the series with fresh rat aorta artery (tannic acid coating, ignoring drug on catheter and gloves) was “over 95%”.
